Reference: patent publication US20190240184A1, “PHARMACEUTICAL APPLICATIONS FOR (S)-N[…] SALTS THEREOF” (NATIONAL UNIVERSITY CORPORATION CHIBA UNIVERSITY, priority 2016, published 2019)

Legend:
normal mice [1] = assay: Hyperlocomotion test (side effects); conditions: for time after administration at which enhanced amount of locomotion returned to a normal value: ketamine 10 mg/kg, norketamine 20 mg/kg, (S)-ketamine 10 mg/kg
normal mice [2] = assay: Prepulse inhibition test (side effects)
LPS-treated mice [3] = assay: Tail suspension test (TST) in LPS-induced inflammatory model of depression; conditions: for immobility time in TST: TST 3 h after
LPS-treated mice [4] = assay: Forced swimming test (FST) in LPS-induced inflammatory model of depression; conditions: for immobility time in FST: FST 5 h after
[5] = system: social defeat stress mice; assay: Tail suspension test (TST) in social defeat stress model of depression; assay type: in vivo; conditions: 10 mg/kg intraperitoneally; for immobility time in TST: single administration
Procedure: (§1) The TST was performed as follows. […] The FST was performed as follows. […] The LMT was performed as follows. […] The SPT was performed as follows.

[6] = system: social defeat stress mice; assay: Forced swimming test (FST) in social defeat stress model of depression; assay type: in vivo; conditions: 10 mg/kg intraperitoneally; for immobility time in FST: single administration
Procedure: as §1

[7] = system: social defeat stress mice; assay: Golgi staining, spine density in brain regions of social defeat stress mice; assay type: in vivo; conditions: 10 mg/kg intraperitoneally, eight days after administration
[8] = system: social defeat stress mice; assay: 1% sucrose preference test (SPT) in social defeat stress model of depression; conditions: 10 mg/kg intraperitoneally, seven days after administration
normal mice [9] = assay: Conditioned place preference test (CPP) (side effects); conditions: 20 mg/kg; vs saline
[10] = Plasma concentration of (S)-norketamine after peroral administration of (S)-norketamine derivative; assay type: in vivo; conditions: mice; 30 mg/kg perorally; 15 min to 8 h
Procedure: The pharmacokinetic profile of an (S)-norketamine derivative was investigated through measurement of the blood concentration of (S)-norketamine after administration thereof.
The obtained blood plasma was placed into a polypropylene microtube and stored in a freezer at −80° C.
The plasma concentration of (S)-norketamine was measured by the method described below.
STD (standard) solution (10 μL) was added to mouse plasma (20 μL) as a calibration curve sample. A mixture of acetonitrile/water (1:1, v/v) was added to a sample, a blank sample, and a QC (quality control) sample.
Agitation was performed for 10 seconds, and I.S. (internal standard) solution (Norketamine-D4: 10 ng/mL) (100 μL) was added. A mixture of acetonitrile and methanol (=9:1) was added to the blank sample.
Agitation was performed for 30 seconds, followed by centrifugation at room temperature and 16,000×g for three minutes. The supernatant (80 μL) was transferred to a new microtube, and 0.001 mol/L ammonium hydrogen carbonate (100 μL) was added to the microtube.
Agitation was performed for 10 seconds, followed by centrifugation at room temperature and 16,000×g for two minutes.
The (S)-norketamine concentration was measured through HPLC.
The measurement conditions are as follows.

NMDA receptor = conditions: Non-Patent Document 12; cited from earlier work
[11] = 10 mg/kg intraperitoneally, vs LPS-treated mice administered saline
[12] = 10 mg/kg each, intraperitoneally
[13] = 5, 10, or 20 mg/kg intraperitoneally 23 h after LPS

| Compound | time after administration at which enhanced amount of locomotion returned to a normal value (normal mice [1]) [min] | immobility time in TST (LPS-treated mice [3]; [11]) | immobility time in FST (LPS-treated mice [4]; [11]) | immobility time in TST [5] | immobility time in FST [6] | spine density in frontal cortex (prelimbic region), hippocampus CA3 region and hippocampal dentate gyrus [7] | spine density in nucleus accumbens (core region and shell region) [7] | sucrose consumption preference in SPT [8] | CPP score (conditioned place preference, drug dependence) (normal mice [9]) | further results |
| --- | --- | --- | --- | --- | --- | --- | --- | --- | --- | --- |
| CNC1(c2ccccc2Cl)CCCCC1=O (racemic) [ketamine] | 20 | significantly reduced immobility time | significantly reduced immobility time | – | – | – | – | – | – | amount of locomotion (hyperlocomotion effect) (normal mice [1]; 10 mg/kg, 10 minutes after administration, vs normal mice administered saline): significant increase in amount of locomotion; prepulse inhibition deficit (normal mice [2]; 10 mg/kg, prepulse stimulation at 77 dB or 81 dB): induced prepulse inhibition deficit |
| N[C@@]1(c2ccccc2Cl)CCCCC1=O [(R)-norketamine] | – | – | – | did not exhibit an antidepressant effect | did not exhibit an antidepressant effect | did not exhibit the effect of increasing the spine density | not affected | did not restore it | – | – |
| CN[C@]1(c2ccccc2Cl)CCCCC1=O [(S)-ketamine] | 30 | – | – | – | – | – | – | – | significantly increase the CPP score | amount of locomotion (hyperlocomotion effect) (normal mice [1]; 10 mg/kg, 10 minutes and 20 minutes after administration, vs normal mice administered saline): significant increase in amount of locomotion; prepulse inhibition deficit (normal mice [2]; 10 mg/kg): induced prepulse inhibition deficit |
| N[C@]1(c2ccccc2Cl)CCCCC1=O [(S)-norketamine] | – | – | – | significantly reduced immobility time | significantly reduced immobility time | significantly increased the spine density | not affected | significantly restored the sucrose consumption preference | did not increase the CPP score | antidepressant effect in TST compared with (R)-norketamine [5]: significantly higher antidepressant effect than (R)-norketamine; antidepressant effect in FST compared with (R)-norketamine [6]: significantly higher antidepressant effect than (R)-norketamine; amount of locomotion (hyperlocomotion effect) (normal mice [1]; 5, 10, or 20 mg/kg): did not affect the amount of locomotion; prepulse inhibition deficit (normal mice [2]; 5, 10, or 20 mg/kg): did not induce prepulse inhibition deficit |
| Cc1oc(=O)oc1COC(=O)N[C@]1(c2ccccc2Cl)CCCCC1=O [Compound 1, (5-methyl-2-oxo-1,3-dioxol-4-yl)methyl-(S)-(1-(2-chlorophenyl)-2-oxocyclohexyl) carbamate] | – | – | – | – | – | – | – | – | – | decrease of blood concentration compared with (S)-norketamine derivative (2) [10]: decreased more slowly |
| NC1(c2ccccc2Cl)CCCCC1=O (centres unmarked) [norketamine] | 20 | significantly reduced immobility time | significantly reduced immobility time | – | – | – | – | – | – | affinity for an NMDA receptor, factor lower than ketamine (NMDA receptor): about 6.8 fold; amount of locomotion (hyperlocomotion effect) (normal mice [1]; 5 mg/kg or 10 mg/kg): did not affect the amount of locomotion; amount of locomotion compared with ketamine (10 mg/kg) (normal mice [1]; 20 mg/kg, 10 minutes after administration): significantly lower than that in the mice administered ketamine (10 mg/kg); amount of locomotion (hyperlocomotion effect) (normal mice [1]; 20 mg/kg, 10 minutes after administration, vs normal mice administered saline): significant increase in amount of locomotion; prepulse inhibition deficit (normal mice [2]; 5 mg/kg or 10 mg/kg): did not induce prepulse inhibition deficit; prepulse inhibition deficit (normal mice [2]; 20 mg/kg, prepulse stimulation at 81 dB): significantly induced prepulse inhibition deficit; antidepressant effect in TST compared with ketamine (LPS-treated mice [3]; [12]): significantly stronger compared to ketamine; immobility time in TST (LPS-treated mice [3]; [13]): dose-dependently reduced immobility time; antidepressant effect in FST compared with ketamine (LPS-treated mice [4]; [12]): significantly stronger compared to ketamine; immobility time in FST (LPS-treated mice [4]; [13]): dose-dependently reduced immobility time |
